Laboratory results as given in article PMC2912373, “Low-Density Lipoprotein Receptor-Related Protein 1 (LRP1) Mediates Neuronal Aβ42 Uptake and Lysosomal Trafficking” (PLoS ONE, 2010).

System: N2a-pcDNA3 cells
Test: Binding/endocytosis of FAM-Aβ42, confocal microscopy
Assay type: cell-based, mouse
Settings: 5 µM bound 1 h at 4°C, 37°C for 8 h
Text: To test whether the endocytic activity of LRP1 mediates the uptake of Aβ42 and its accumulation within neurons, we analyzed the uptake of fluorescently labeled Aβ42 in control N2a cells and in N2a cells that overexpress a LRP1 minireceptor, mLRP4. This minireceptor contains the fourth ligand-binding domain of LRP1 and is capable of binding several LRP1 ligands with endocytic properties identical to the full-length LRP1 [35]. We generated stable N2a-mLRP4 and N2a-pcDNA3 cell lines and characterized them for total mLRP4 expression levels by Western blot and FACS (Fig. 1). […] To determine if mLRP4 reached the plasma membrane after synthesis, we analyzed cell surface levels of mLRP4 by FACS in non-permeabilized cells. […] To quantify the amount of internalized RAP, we performed FACS analysis of similarly treated cultures. […] Cells were then warmed to 37°C for different periods of time to allow ligand internalization, and analyzed by confocal microscopy as described in the Experimental Procedures section. […]
Figure 1 LRP1 minireceptor increases the uptake of Aβ42 in N2a-mLRP4 cells. A, cell lysates from N2a cells stably expressing LRP1 minireceptor (N2a-mLRP4) or empty pcDNA3 vector (N2a-pcDNA3) were analyzed by 7.5% SDS-PAGE and Western blotted with anti-HA or anti-LRP1 antibodies. […]

Q: How did the “Aβ42 accumulated after 8 h of warming” value turn out when “FAM-Aβ42: FAM-Aβ42 peptide (23526) from Anaspec; amyloid-β 42 with carboxyfluorescein at the N-terminal region” was run?
A: small amount
